# Results: patent US8193169B2, “(20R)-2α-methyl-19,26,2-trinor-vitamin D analogs” (Wisconsin Alumni Research Foundation, priority 2006, dated 2012)
# pEC50, pKi: −log10 of the molar value.
# How the values were obtained:
# [1] = system: 24-hydroxylase (24Ohase) gene promoter; test: In vitro transcription assay, luciferase reporter in ROS 17/2.8 (bone) cells; type: cell-based; conditions: for pEC50: ROS 17/2.8 cells, 24-hydroxylase promoter-luciferase, FIG. 3, read-out: EC50, transcriptional activity in bone cells
# Protocol: Transcription activity was measured in ROS 17/2.8 (bone) cells that were stably transfected with a 24-hydroxylase (24Ohase) gene promoter upstream of a luciferase reporter gene (Arbour et al., 1998). Cells were given a range of doses. Sixteen hours after dosing the cells were harvested and luciferase activities were measured using a luminometer.
# RLU=relative luciferase units.
# [2] = Bone calcium mobilization (serum calcium) in vitamin D-deficient rats; type: in vivo, Sprague-Dawley rats; conditions: vitamin D-deficient rats on 0.02% Ca diet, FIG. 4
# Protocol: (§1) Male, weanling Sprague-Dawley rats were placed on Diet 11 (0.47% Ca) diet+AEK oil for one week followed by Diet 11 (0.02% Ca)+AEK oil for 3 weeks. The rats were then switched to a diet containing 0.47% Ca for one week followed by two weeks on a diet containing 0.02% Ca. Dose administration began during the last week on 0.02% calcium diet. Four consecutive ip doses were given approximately 24 hours apart. Twenty-four hours after the last dose, blood was collected from the severed neck and the concentration of serum calcium determined as a measure of bone calcium mobilization. The first 10 cm of the intestine was also collected for intestinal calcium transport analysis using the everted gut sac method.
# HL-60 cells = test: HL-60 cell differentiation (nitro blue tetrazolium reduction); type: cell-based, human; conditions: for pEC50: HL-60 cells, differentiation into monocytes, FIG. 2
# Protocol: The study drugs were dissolved in ethanol and the concentrations determined using UV spectrophotometry. Serial dilutions were prepared so that a range of drug concentrations could be tested without changing the final concentration of ethanol (≦0.2%) present in the cell cultures.
# Human promyelocytic leukemia (HL60) cells were grown in RPMI-1640 medium containing 10% fetal bovine serum. The cells were incubated at 37° C. in the presence of 5% CO2.
# HL60 cells were plated at 1.2×10^5 cells/ml. Eighteen hours after plating, cells in duplicate were treated with drug. Four days later, the cells were harvested and a nitro blue tetrazolium reduction assay was performed (Collins et al., 1979; J. Exp. Med. 149:969-974). The percentage of differentiated cells was determined by counting a total of 200 cells and recording the number that contained intracellular black-blue formazan deposits. Verification of differentiation to monocytic cells was determined by measuring phagocytic activity (data not shown).
# [3] = molecular target: T1, full-length recombinant rat vitamin D receptor (Rattus norvegicus, UniProt P13053); conditions: compared to 1,25(OH)2D3
# T1 sequence (P13053 1-423): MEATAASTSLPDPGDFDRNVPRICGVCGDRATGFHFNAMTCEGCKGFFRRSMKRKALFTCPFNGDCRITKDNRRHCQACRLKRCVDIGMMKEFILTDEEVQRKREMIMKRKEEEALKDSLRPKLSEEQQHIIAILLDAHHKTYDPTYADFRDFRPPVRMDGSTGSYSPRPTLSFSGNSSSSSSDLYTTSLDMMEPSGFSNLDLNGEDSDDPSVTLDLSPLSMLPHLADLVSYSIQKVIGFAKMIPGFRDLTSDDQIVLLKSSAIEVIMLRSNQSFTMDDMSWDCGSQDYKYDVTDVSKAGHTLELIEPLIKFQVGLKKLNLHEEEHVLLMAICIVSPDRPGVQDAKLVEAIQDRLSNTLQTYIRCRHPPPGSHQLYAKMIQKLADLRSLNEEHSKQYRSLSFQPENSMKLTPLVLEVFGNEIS
# [4] = Intestinal calcium transport, everted gut sac method, in vitamin D-deficient rats; type: in vivo, Sprague-Dawley rats; conditions: 35,100 pmol/day ip for 4 consecutive days, FIG. 5
# Protocol: as §1
# [5] = molecular target: T1, full-length recombinant rat vitamin D receptor; test: biochemical
# [6] = compared to 1α,25-dihydroxyvitamin D3
"VDR binding potency relative to 1,25(OH)2D3 (times less potent) [3]",pEC50 (HL-60 cells; Homo sapiens),pKi [5],SMILES,pEC50 [1],Bone calcium mobilization activity (serum calcium) ([2]; 780 pmol/day),Serum calcium levels ([2]; all dosages),pEC50 (HL-60 cells),"Transcriptional activity in bone cells relative to 1α,25-dihydroxyvitamin D3 (times less) [1, 6]","Bone calcium mobilization activity (serum calcium) ([2]; 35,100 pmol/day ip for 4 consecutive days)","HL-60 cell differentiation activity relative to 1α,25-dihydroxyvitamin D3 (times less activity) (HL-60 cells; [6]) [times]",Intestinal calcium transport activity [4]
–,–,–,"C=C1/C(=C\C=C2/CCC[C@]3(C)[C@@H]([C@H](C)CCCC(C)(C)O)CC[C@@H]23)C[C@@H](O)C[C@@H]1O [1,25(OH)2D3, 1α,25-dihydroxyvitamin D3, reference compound]",9.52,significant activity,increased serum calcium levels at all dosages,8.70,–,–,–,–
about 10 times,7.52,9.00,"CC(CCCCO)C1CCC2C(=CC=C3CC(O)C(C)C(O)C3)CCCC21C [B-9, (20R)-2α-methyl-19,26,27-trinor-1α,25-dihydroxyvitamin D3]",8.00,–,–,–,about 30 times,did not result in any mobilization of bone calcium,~10,did not result in any activity
